In US20210162009A1, “CHEMOKINE VARIANTS AS IMMUNE STIMULANTS” (THE MEDICAL COLLEGE OF WISCONSIN, INC., priority 2017, published 2021):

Experiments:
[1] = tested on: melanoma metastasis; settings: cited from earlier work; for blocking of tumor metastasis: side-by-side equimolar comparison, 5 μM
[2] = Translational diffusion measurements (dimerisation state); format: physicochemical
Source text: The lines connecting the cysteines show where the intra-and intermolecular disulfide bonds are. A) CXCL12-α2 locked dimer amino acid sequence with the conserved intramolecular disulfide bonds (black lines) and the engineered intermolecular disulfide bonds (red lines) illustrated. B) SDS-PAGE of CXCL12-αand CXCL12-α2 treated with and without dithiothreitol (DTT). […] D) N-terminal peptides corresponding to the first thirty-eight amino acids of CXCR4 are illustrated. The sequence for p38 is identical to that of CXCR4 except for an additional N-terminal Gly-Ser dipeptide (cloning artifact) and the C28A substitution (green) introduced to prevent oxidative peptide dimer formation. The sulfated peptides are identical to p38 except for the inclusion of sulfotyrosine at position 21 for p38-sY1 and at positions 7, 12 and 21 for p38-sY3.

[3] = target: T1, CXCR4 (Homo sapiens, UniProt P61073); settings: 125I-CXCL12 displacement; read-out: Kd for binding CXCR4; cited from earlier work
[4] = relative to natural CXCL12; cited from earlier work
[5] = Toxicity: serum AST, ALT, BUN; format: in vivo; settings: 5 μM twice weekly for 3 weeks, mice
Procedure: Serum levels of aspartate aminotransferase (AST) and alanine aminotransferase (ALT) were measured using serologic assays to measure hepatic toxicity. Serum levels of blood urea nitrogen (BUN) were monitored to detect kidney damage.
Toxicity—Blood, bone marrow, and tissue levels of CXCL12 were measured using a commercially available sandwich ELISA assay (20-22). The ELISA will detect both endogenous and exogenous CXCL12. Toxicity is monitored using histopathologic assessment of heart, and kidney, and serum assays of hepatic (e.g. AST, ALT, AP) and kidney (e.g. BUN, creatinine) biomarkers, using standard veterinary assays. […] Published data (Roy et al., 2014) indicate twice weekly injection of 5 μM chemokine protein is well tolerated, with no change in body weight or appearance after 120 days in tumor xenografted mice.

[6] = tested on: CD34+CXCR4+ stem cells; test: Mobilization of CD34+CXCR4+ hematopoietic stem cells; format: in vivo, mice
Procedure: (§1) FIGS. 6A-6C show mobilization of lymphocytes into the peripheral blood (A) and out of the bone marrow (B) 1 hour after subcutaneous injection of 5 μM (0.8 mg/kg) CXCL12 locked dimer 104 or 4000 μM (20 mg/kg) plerixafor/AMD3100 102. Control mice received an injection of the chemokine vehicle (Veh), sterile PBS 100. Values are mean±SEM, n=3-4 mice per group. Asterisks (****)=[…].
FIGS. 8A-8C show mobilization of hematopoietic stem cells by the CXCL12 locked dimer. Mice were bled (baseline) prior to subcutaneous injection of LD at a final concentration of 5 μM. Mice were re-bled 15-minutes (FIG. 8A), 2-hours (FIG. 8B) or 4-hours (FIG. 8C) later. Two separate cohorts of mice (shown by circles and squares) were treated (n=3 per group) and show consistent increases in the number of CD34+ stem cells in the circulation.
After blood collection, treated and control mice were sacrificed and the bone marrow of each femur flushed with PBS. […] Peripheral and bone marrow immunocytes were incubated with fluorescence-tagged antibodies to detect the HSC markers CD34, CD11, SCA1, CD90, CD38, Lin and CXCR4, or the T cell and B cell markers CD3 and CD19, respectively.
FIGS. 8A-8C also show mobilization of hematopoietic stem cells by the CXCL12 locked dimer. […] Levels of CD34+CXCR4+ stem cells within circulating blood were detected and quantified using multiparametric flow cytometry.

[7] = tested on: lymphocytes; test: Mobilization of lymphocytes into peripheral blood and out of bone marrow; format: in vivo, mice
Procedure: as §1
The chemokine CXCL12 is produced by bone marrow stromal cells (17). A single dose infusion of plerixafor/AMD3100 competitively antagonizes CXCR4 to disrupt stromal CXCL12 interactions with bone marrow cells, mobilizing HSC to enter into the peripheral blood (6). […] Importantly, the 5 μM the CXCL12 locked dimer dose used is the same concentration we have used to block tumor metastasis in vivo and where plerixafor/AMD3100 is ineffective (FIGS. 5A-5B).
After blood collection, treated and control mice were sacrificed and the bone marrow of each femur flushed with PBS. Peripheral blood and marrow samples were centrifuged (1800×g for 15 min at room temperature), the plasma removed, and the leukocytes in the buffy coat collected, an aliquot used to enumerate the total cell population using hemocytometry, and the remaining cells transferred to flow cytometry tubes. Peripheral and bone marrow immunocytes were incubated with fluorescence-tagged antibodies to detect the HSC markers CD34, CD11, SCA1, CD90, CD38, Lin and CXCR4, or the T cell and B cell markers CD3 and CD19, respectively.
Control mice received an injection of the chemokine vehicle (Veh), sterile PBS 100. Values are mean ±SEM, n=3-4 mice per group. Asterisks (****)=P≤0.001.

[8] = target: T1, CXCR4; settings: 10 nM CXCL12 variants, with or without pertussis toxin; cited from earlier work
[9] = Heparin binding
Source text: Further, in addition to binding CXCR4, CXCL12 also binds to heparin found in the extracellular matrix on cell surfaces. […] Amino acid substitutions in CXCL12, including K24S, K27S, or K24S/K27S can prevent heparin binding and increase the half-life of CXCL12 in vivo; therefore, similar mutations in CXCL12-α2 would likely prevent heparin binding and increase the in vivo half-life of the dimer.

[10] = tested on: 5T33 multiple myeloma cells; test: Mobilization of GFP-tagged 5T33 multiple myeloma cells into the blood; format: in vivo, mice; settings: 50 μM subcutaneous, 1 hour, GFP+ cells by flow cytometry
Procedure: Representative flow cytometry plots are on the left measuring side scatter counts (SSC) and GFP+-5T33 multiple myeloma cells in the circulation before and after treatment shown in the right panels. n=5 mice per treatment group.
This mobilization is compared to the mobilization following administration of AMD3100. Mice bearing GFP-tagged 5T33 multiple myeloma cells were bled immediately prior to subcutaneous injection of either the CXCL12 locked dimer (50 μM) or AMD3100 (4 mM). Individual mice were re-bled 1-hour later and GFP+ myeloma tumor cells in peripheral circulation quantified by flow cytometry. Representative flow cytometry plots are on the left with GFP+-5T33 multiple myeloma cells in the circulation before and after treatment shown in the right panels. n=5 mice per treatment group.

[11] = fitted, 20 mM sodium phosphate pH 7.4

T1 sequence (P61073 whole entry): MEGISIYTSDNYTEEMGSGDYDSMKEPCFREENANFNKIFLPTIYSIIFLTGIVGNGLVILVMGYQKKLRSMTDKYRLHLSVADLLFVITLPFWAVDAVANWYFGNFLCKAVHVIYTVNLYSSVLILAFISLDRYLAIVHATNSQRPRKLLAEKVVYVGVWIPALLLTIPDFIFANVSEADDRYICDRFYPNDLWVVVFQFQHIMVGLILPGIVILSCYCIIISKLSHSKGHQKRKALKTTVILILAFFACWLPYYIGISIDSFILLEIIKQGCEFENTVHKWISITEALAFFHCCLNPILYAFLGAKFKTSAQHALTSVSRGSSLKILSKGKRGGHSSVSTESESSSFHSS

Molecule: c1cc(CN2CCCNCCNCCCNCC2)ccc1CN1CCCNCCNCCCNCC1 [plerixafor/AMD3100, plerixafor, reference compound]
- blocking of tumor metastasis [1]: ineffective

Molecule: wild-type CXCL12: wild type CXCL12 chemokine (SEQ ID NO:3), natural ligand for CXCR4
- dimer Ds value [2, 11]: ~1.0 ×10^−6 cm^2s^−1
- pure monomer Ds value [2, 11]: ~1.6 ×10^−6 cm^2s^−1
- Kd [3]: 25 nM
- stability against enzymatic digestion in serum [4]: rapidly inactivated in serum
- hepatic or kidney toxicity (AST, ALT, BUN) [5]: little hepatic or kidney toxicity

Molecule: CXCL12 locked dimer: covalently locked dimer comprising two CXCL12 L36C/A65C sequences (SEQ ID NO: 1), linked by intermolecular disulfide bonds
- Diffusion coefficient Ds ([2]; 10, 50 and 150 μM protein): 1.08-1.09 ×10^−6 cm^2s^−1
- inhibition of melanoma metastasis ([1]; dose response): dose dependently inhibits melanoma metastasis
- melanoma metastasis, comparison with plerixafor/AMD3100 ([1]; equimolar concentrations): more effective than plerixafor/AMD3100
- blocking of tumor metastasis [1]: blocked tumor metastasis
- stability against enzymatic digestion in serum [4]: enhanced stability against enzymatic digestion in serum
- number of CD34+ stem cells in circulation ([6]; 5 μM s.c., 15 minutes, 2 hours or 4 hours, two cohorts): consistent increases in the number of CD34+ stem cells in circulation
- mobilization of CXCR4+CD34+ hematopoietic stem cells (FIG. 6C) ([6]; FIG. 6C): mobilization of CXCR4+CD34+ hematopoietic stem cells
- hepatic or kidney toxicity (AST, ALT, BUN) [5]: little hepatic or kidney toxicity
- bone marrow resident lymphocytes ([7]; 5 μM, subcutaneous, 1 hour): concomitant decrease in bone marrow resident lymphocytes
- mobilization of hematopoietic cells into peripheral circulation ([7]; 5 μM, subcutaneous, 1 hour): potently stimulated mobilization of hematopoietic cells into peripheral circulation
- ability to mobilize lymphocytes, locked dimer vs AMD3100 ([7]; 1 hour after s.c. 5 μM (0.8 mg/kg) locked dimer or 4000 μM (20 mg/kg) plerixafor/AMD3100): no statistical difference
- potency relative to plerixafor for mobilizing lymphocytes, mg/kg basis ([7]; vs plerixafor): 3 X
- potency relative to plerixafor for mobilizing lymphocytes, molar basis ([7]; vs plerixafor, also monocytes and neutrophils): 1000 ×
- G protein dependent intracellular calcium flux [8]: activates the expected and prototypical G protein dependent intracellular calcium flux
- heparin binding [9]: also binds heparin
- mobilization of multiple myeloma cells into the blood [10]: mobilizes multiple myeloma cells into the blood
